Drawing on US7456218B2, “3-(4-benzyloxyphenyl) propanoic acid derivatives” (Takeda Pharmaceutical Company Limited, priority 2003, dated 2008), this text covers EC50 and melting point for 13 compounds.

The structures appear in SMILES notation.

One data set deals with T1, human GPR40 (Homo sapiens, UniProt O14842).
T1 construct: expressed in transfected cells
Nature of the data set: Determination of EC50 against human GPR40: changes in intracellular calcium concentration by FLIPR in CHO cells stably expressing human GPR40. The settings on record: CHO cell line stably expressing human GPR40, Fluo3-AM, read-out: EC50 (Receptor Function Modulating Action On GPR40). In kind it is cell-based. Here is the method: Determination of EC50 of the Compound of the Present Invention Against Human GPR40
For determination of EC50, CHO cell line that stably expressed human GPR40 was used. Unless otherwise indicated, the CHO cell line was cultured using α-MEM medium (Invitrogen) containing 10% fetal calf serum (Invitrogen).
The cells cultured to nearly confluent were rinsed with PBS (Invitrogen) on the previous day of the assay, peeled off with 0.05% Trypsin-EDTA solution (Invitrogen) and recovered by centrifugation. The number of the obtained cells was counted, and the cells were diluted such that 3×10^5 cells were contained per 1 mL of the medium, dispensed to a black welled 96-well plate (coster) by 100 μL per well and cultured overnight in a CO2 incubator. Various test compounds were added to the CHO cells thus prepared, and the changes in the intracellular calcium concentration was measured using FLIPR (Molecular Device). The below-mentioned pre-treatment was applied to measure changes in the intracellular calcium concentration by FLIPR.
An assay buffer for adding a fluorescence dye Fluo3-AM (DOJIN) to the cells, or for washing the cells immediately before FLIPR assay was prepared. To a solution of 1M HEPES (pH 7.4, DOJIN, 20 mL) added to HBSS (Invitrogen, 1000 mL) (hereinafter HBSS/HEPES solution) was added a solution (10 mL) obtained by dissolving probenecid (Sigma, 710 mg) in 1N NaOH (5 mL), and adding and mixing an HBSS/HEPES solution (5 mL), and the resulting solution was used as an assay buffer. Fluo3-AM (50 μg) was dissolved in dimethylsulfoxide (Wako, 21 μL), and an equivalent amount of 20% pluronic acid (Molecular Probes) was added and mixed. The solution was added to the assay buffer (10.6 mL) supplemented with fetal calf serum (105 μL) to give a fluorescence dye solution. […], the medium of the CHO cells newly inoculated to the black welled 96-well plate was removed, the fluorescence dye solution was immediately dispensed by 100 μL per well and the cells were cultured in a CO2 incubator for 1 hr to allow intake of the fluorescence dye by the cells. The cells after the culture were washed with the above-mentioned assay buffer and set on FLIPR. The test compound was diluted with dimethylsulfoxide in advance, dispensed to polypropylene 96-well plate (sample plate) by 2 μL, and cryopreserved at −20° C. To the thawed sample plate was added an assay buffer containing 0.015% CHAPS (DOJIN) by 198 μL, and simultaneously set on FLIPR together with the cell plate. After the aforementioned pre-treatment, changes in the intracellular calcium concentration upon addition of various test compounds was measured by FLIPR. Based on the results, a dose-response curve of each test compound was formed and EC50 was calculated.

T1 sequence (O14842 whole entry): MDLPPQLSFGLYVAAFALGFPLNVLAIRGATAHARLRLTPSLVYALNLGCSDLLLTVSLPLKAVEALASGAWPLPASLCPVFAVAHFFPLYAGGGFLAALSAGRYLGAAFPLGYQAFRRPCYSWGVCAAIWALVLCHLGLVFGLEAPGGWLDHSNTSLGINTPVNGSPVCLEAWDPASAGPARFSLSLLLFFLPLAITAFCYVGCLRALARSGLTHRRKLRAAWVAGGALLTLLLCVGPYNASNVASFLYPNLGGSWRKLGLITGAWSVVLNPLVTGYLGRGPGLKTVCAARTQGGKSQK

By EC50 is commonly meant the concentration giving half of the maximal effect. With `Cc1cc(C)c(-c2cccc(COc3ccc(CCC(=O)O)c(F)c3)c2)c(COc2ccc(F)cc2)c1` [Example 54, 3-{2-fluoro-4-[(2′-(4-fluorophenoxymethyl)-4′,6′-dimethylbiphenyl-3-yl)methoxy]phenyl}propanoic acid], the EC50 on human GPR40 was 0.049 µM. On the same count and under the same terms, then `CCOCCOc1cc(C)c(-c2cccc(COc3ccc(CC(F)(F)C(=O)O)cc3)c2)c(C)c1` [Example 75, 3-(4-{[4′-(2-ethoxyethoxy)-2′,6′-dimethylbiphenyl-3-yl]methoxy}phenyl)-2,2-difluoropropanoic acid], with 0.016 µM. The term melting point denotes the temperature of the solid-liquid transition. `Cc1cc(OS(C)(=O)=O)cc(C)c1-c1cccc(COc2ccc(CCC(=O)O)c(F)c2)c1` [Example 102, 3-[4-({2′,6′-dimethyl-4′-[(methylsulfonyl)oxy]biphenyl-3-yl}methoxy)-2-fluorophenyl]propanoic acid] yielded a melting point of 124 to 125 °C. Besides, at human GPR40, the EC50 was 0.015 µM. As for `Cc1cc(OC2CCS(=O)(=O)CC2)cc(C)c1-c1cccc(COc2ccc(CCC(=O)O)c(F)c2)c1` [Example 114, 3-[4-({4′-[(1,1-dioxidotetrahydro-2H-thiopyran-4-yl)oxy]-2′,6′-dimethylbiphenyl-3-yl}methoxy)-2-fluorophenyl]propanoic acid], on human GPR40, the EC50 stood at 0.02 µM. The same measure, in the same setting: then `Cc1cc(OCC2(O)CCS(=O)(=O)CC2)cc(C)c1-c1cccc(COc2ccc(CCC(=O)O)c(F)c2)c1` [Example 100, 3-[2-fluoro-4-({4′-[(4-hydroxy-1,1-dioxidotetrahydro-2H-thiopyran-4-yl)methoxy]-2′,6′-dimethylbiphenyl-3-yl}methoxy)phenyl]propanoic acid], with 0.017 µM. On the same count and under the same terms, the same measure for `COc1ccc(COc2ccc(CCC(=O)O)cc2)cc1-c1ccc(C)cc1C` [Example 49, 3-(4-((6-methoxy-2′,4′-dimethylbiphenyl-3-yl)methoxy)phenyl)propanoic acid]: 0.011 µM; for `Cc1cc(Cl)ccc1-c1cccc(COc2ccc(CCC(=O)O)cc2)c1` [Example 33, 3-[4-[(4′-chloro-2′-methylbiphenyl-3-yl)methoxy]phenyl]propanoic acid]: 0.0061 µM.

With `CCS(=O)(=O)CCOc1cc(C)c(-c2cccc(COc3ccc(CCC(=O)O)c(F)c3)c2)c(C)c1` [Example 86, 3-[4-({4′-[2-(ethylsulfonyl)ethoxy]-2′,6′-dimethylbiphenyl-3-yl}methoxy)-2-fluorophenyl]propanoic acid], the EC50 at human GPR40 came out at 0.032 µM. Take `Cc1cccc(COc2cc(C)c(-c3cccc(COc4ccc(CCC(=O)O)c(F)c4)c3)c(C)c2)n1.Cl` [Example 97, 3-[4-({2′,6′-dimethyl-4′-[(6-methylpyridin-2-yl)methoxy]biphenyl-3-yl}methoxy)-2-fluorophenyl]propanoic acid hydrochloride]: the melting point is 55 to 56 °C. The EC50 at human GPR40 worked out at 0.023 µM.

As for `Cc1cc(OCCc2scnc2C)ccc1-c1cccc(COc2ccc(CCC(=O)O)cc2)c1` [Example 14, 3-[4-({2′-methyl-4′-[2-(4-methyl-1,3-thiazol-5-yl)ethoxy]biphenyl-3-yl}methoxy)phenyl]propanoic acid], the EC50 at human GPR40 was found to be 0.01 µM. For `Cc1cc(OCCCN2CCCC2=O)cc(C)c1-c1cccc(COc2ccc(CCC(=O)O)c(F)c2)c1` [Example 90, 3-[4-({2′,6′-dimethyl-4′-[3-(2-oxopyrrolidin-1-yl)propoxy]biphenyl-3-yl}methoxy)-2-fluorophenyl]propanoic acid], the EC50 on human GPR40 worked out at 0.034 µM. For the compound `Cc1cc(OCC2(C)COC2)cc(C)c1-c1cccc(COc2ccc(CCC(=O)O)c(F)c2)c1` [Example 116, 3-[4-({2′,6′-dimethyl-4′-[(3-methyloxetan-3-yl)methoxy]biphenyl-3-yl}methoxy)-2-fluorophenyl]propanoic acid], the melting point fell in the range of 112 to 113 °C.

With `Cc1cc(OCc2ccccc2)cc(C)c1-c1cccc(COc2ccc(CCC(=O)O)cc2)c1` [Example 39, 3-[4-[[4′-(benzyloxy)-2′,6′-dimethylbiphenyl-3-yl]methoxy]phenyl]propanoic acid], at human GPR40, the EC50 came out at 0.032 µM.
